Holding throughout (assay type): biochemical
Test [1] has as its target T1, nlGSTE (Nilaparvata lugens, UniProt J9Q4G5).
T1 sequence (J9Q4G5 1-217): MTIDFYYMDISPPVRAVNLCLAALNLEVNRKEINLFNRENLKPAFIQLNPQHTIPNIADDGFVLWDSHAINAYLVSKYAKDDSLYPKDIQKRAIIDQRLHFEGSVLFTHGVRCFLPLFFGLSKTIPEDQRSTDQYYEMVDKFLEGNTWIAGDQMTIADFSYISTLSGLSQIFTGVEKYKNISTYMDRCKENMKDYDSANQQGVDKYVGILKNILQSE
The test can be described thus: spectrophotometry at […] nm, double-reciprocal plot. The conditions noted are these: read-out: WT; 5 mM GSH, 20 mM Tris-HCl pH 8.0, 30 °C.

The target of test [2] is T2, nlGSTE (Nilaparvata lugens, UniProt J9Q4G5, R112A).
T2 sequence (J9Q4G5 1-217 R112A): T1 sequence (J9Q4G5 1-217)
Description: spectrophotometry at […] nm, double-reciprocal plot. As to conditions: read-out: R112A; 5 mM GSH, 20 mM Tris-HCl pH 8.0, 30 °C.

The target of test [3] is T3, nlGSTE (Nilaparvata lugens, UniProt J9Q4G5, F118L).
T3 sequence (J9Q4G5 1-217 F118L): T1 sequence (J9Q4G5 1-217)
Description: spectrophotometry at […] nm, double-reciprocal plot. The conditions noted are these: read-out: F118L; 5 mM GSH, 20 mM Tris-HCl pH 8.0, 30 °C.

In test [4] the target is T4, nlGSTE (Nilaparvata lugens, UniProt J9Q4G5, F107A).
T4 sequence (J9Q4G5 1-217 F107A): T1 sequence (J9Q4G5 1-217)
Description: spectrophotometry at […] nm, double-reciprocal plot. As to conditions: read-out: F107A; 5 mM GSH, 20 mM Tris-HCl pH 8.0, 30 °C.

In test [5] the target is T5, nlGSTE (Nilaparvata lugens, UniProt J9Q4G5, F119A).
T5 sequence (J9Q4G5 1-217 F119A): T1 sequence (J9Q4G5 1-217)
The test can be described thus: spectrophotometry at […] nm, double-reciprocal plot. The conditions noted are these: read-out: F119A; 5 mM GSH, 20 mM Tris-HCl pH 8.0, 30 °C.

For test [6], the target named is T1, nlGSTE. Description: inhibition of CDNB conjugation, spectrophotometry. As to conditions: read-out: % remaining activity at 0.1 mM.
Test [7] deals with T1, nlGSTE. The test can be described thus: inhibition of CDNB conjugation, spectrophotometry. The conditions noted are these: substrates CDNB and GSH; several inhibitor concentrations.

For `O=[N+]([O-])c1ccc(Cl)c([N+](=O)[O-])c1` [CDNB, 1-chloro-2,4-dinitrobenzene], the Km worked out at 2.1 ± 0.165 mM in test [1]; 8.7 ± 0.666 mM in test [2]; 4.2 ± 0.865 mM in test [3]; 3.1 ± 0.367 mM in test [4]; 5 ± 0.575 mM in test [5].
Usually remaining activity stands for the signal under treatment as a percentage of the control signal. Turning to `CNC(=O)Oc1cccc2c1OC(C)(C)O2` [bendiocarb], the remaining activity at 100 µM in test [6] was 36%.
`CC1(C)C(C=C(Cl)Cl)C1C(=O)OCc1cccc(Oc2ccccc2)c1` (stereo not drawn) [permethrin]: in test [7], the remaining activity entry is “nlGSTE activity was affected by permethrin, bendiocarb, diazinon, and chlorfenapyr”.
On the same count and under the same terms, next, `CCOP(=S)(OCC)Oc1cc(C)nc(C(C)C)n1` [diazinon]: “nlGSTE activity was affected by permethrin, bendiocarb, diazinon, and chlorfenapyr”.
As for `CCOCn1c(-c2ccc(Cl)cc2)c(C#N)c(Br)c1C(F)(F)F` [chlorfenapyr], the remaining activity at 100 µM in test [6] stood at 84%.

The values are drawn from publication PMC6790247 (Journal of Insect Science, 2019).
